# From US20240190880A1 (THE REGENTS OF THE UNIVERSITY OF MICHIGAN, priority 2021, published 2024)
# Target: T1, ER (Homo sapiens, UniProt P03372)
# T1 construct: host or cells: T47D and MCF7 human breast cancer cells
# T1 sequence (P03372 1-595): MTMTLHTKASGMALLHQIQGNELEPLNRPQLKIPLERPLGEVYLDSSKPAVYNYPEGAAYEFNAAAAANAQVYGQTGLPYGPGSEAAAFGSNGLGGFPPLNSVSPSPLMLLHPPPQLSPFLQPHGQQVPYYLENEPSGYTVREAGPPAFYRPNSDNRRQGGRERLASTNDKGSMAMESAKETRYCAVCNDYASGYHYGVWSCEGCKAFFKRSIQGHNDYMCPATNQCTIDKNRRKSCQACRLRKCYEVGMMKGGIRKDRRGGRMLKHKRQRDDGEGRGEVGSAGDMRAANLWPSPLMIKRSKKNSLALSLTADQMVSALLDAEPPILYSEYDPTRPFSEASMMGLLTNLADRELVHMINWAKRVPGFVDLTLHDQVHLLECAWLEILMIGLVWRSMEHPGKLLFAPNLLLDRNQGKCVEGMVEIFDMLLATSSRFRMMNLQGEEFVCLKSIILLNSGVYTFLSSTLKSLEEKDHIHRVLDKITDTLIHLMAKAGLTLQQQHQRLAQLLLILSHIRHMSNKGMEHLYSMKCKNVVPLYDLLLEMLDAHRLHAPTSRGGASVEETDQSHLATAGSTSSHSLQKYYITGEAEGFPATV
# Experiment: ER degradation activity, in-cell western blot analysis in T47D cells
# Type: cell-based
# Conditions: 16 hours, Table A does not say which cell line (T47D or MCF7), read-out: Potency (DC50)
# In short: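 Read-out is near-infrared fluorescence from an in-cell western, expressed as ER percentage relative to untreated and DMSO controls taken as 100%. T47D breast cancer cells received compound for 16 h in 0.5% DMSO.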
row,SMILES,DC50 [nM]
1,"C[C@@H]1Cc2c([nH]c3ccccc23)[C@@H](c2c(F)cc(C3CCC(C(=O)N4CCC(F)(CN5Cc6cc7c(cc6C5)C(=O)N(C5CCC(=O)NC5=O)C7=O)CC4)CC3)cc2F)N1CC(F)F (stereo partly drawn) [E247, 6-((1-(4-(4-((1R,3R)-2-(2,2-difluoroethyl)-3-methyl-2,3,4,9-tetrahydro-1H-pyrido[3,4-b]indol-1-yl)-3,5-difluorophenyl)cyclohexane-1-carbonyl)-4-fluoropiperidin-4-yl)methyl)-2-(2,6-dioxopiperidin-3-yl)-6,7-dihydropyrrolo[3,4-f]isoindole-1,3(2H,5H)-dione]",10 to 100
2,"C[C@@H]1Cc2c([nH]c3ccccc23)[C@@H](c2c(F)cc(N3CCC(CN4CCC5(CCC(N6Cc7cc8c(cc7C6)C(=O)N(C6CCC(=O)NC6=O)C8=O)C5)CC4)CC3)cc2F)N1CC(F)F (stereo partly drawn) [E 133, 6-(8-((1-(4-((1R,3R)-2-(2,2-difluoroethyl)-3-methyl-2,3,4,9-tetrahydro-1H-pyrido[3,4-b]indol-1-yl)-3,5-difluorophenyl)piperidin-4-yl)methyl)-8-azaspiro[4.5]decan-2-yl)-2-(2,6-dioxopiperidin-3-yl)-6,7-dihydropyrrolo[3,4-f]isoindole-1,3(2H,5H)-dione]",10 to 100
3,"C[C@@H]1Cc2cc(O)ccc2[C@@H](c2c(F)cc(N3CCC(N4CCC(C(=O)N5Cc6cc7c(cc6C5)C(=O)N(C5CCC(=O)NC5=O)C7=O)CC4)CC3)cc2F)N1CC(C)(F)F (stereo partly drawn) [E 29, 6-(1′-(4-((1S,3R)-2-(2,2-difluoropropyl)-6-hydroxy-3-methyl-1,2,3,4-tetrahydroisoquinolin-1-yl)-3,5-difluorophenyl)-[1,4′-bipiperidine]-4-carbonyl)-2-(2,6-dioxopiperidin-3-yl)-6,7-dihydropyrrolo[3,4-f]isoindole-1,3(2H,5H)-dione]",> 100
4,"CN(C1CCN(c2ccc([C@@H]3c4ccc(O)cc4CC[C@@H]3c3ccccc3)cc2)CC1)N1CCC(CN2Cc3cc4c(cc3C2)C(=O)N(C2CCC(=O)NC2=O)C4)CC1 (mixture of isomers) [E 300, 3-(6-((1-((1-(4-((1R,2S)-6-hydroxy-2-phenyl-1,2,3,4-tetrahydronaphthalen-1-yl)phenyl)piperidin-4-yl)(methyl)amino)piperidin-4-yl)methyl)-1-oxo-3,5,6,7-tetrahydropyrrolo[3,4-f]isoindol-2(1H)-yl)piperidine-2,6-dione]",> 100
5,"C[C@@H]1Cc2cc(O)ccc2[C@@H](c2ccc(N3CCC(C(=O)N4CC(CN5Cc6cc7c(cc6C5)C(=O)N(C5CCC(=O)NC5=O)C7=O)C4)CC3)cc2F)N1CC(F)F (stereo partly drawn) [E 349, 6-((1-(1-(4-((1S,3R)-2-(2,2-difluoroethyl)-6-hydroxy-3-methyl-1,2,3,4-tetrahydroisoquinolin-1-yl)-3-fluorophenyl)piperidine-4-carbonyl)azetidin-3-yl)methyl)-2-(2,6-dioxopiperidin-3-yl)-6,7-dihydropyrrolo[3,4-f]isoindole-1,3(2H,5H)-dione]",> 100
6,"O=C1CCC(N2C(=O)c3cc4c(cc3C2=O)CN(CC(=O)N2CC3(CCN(c5ccc([C@@H]6c7ccc(O)cc7CC[C@@H]6c6ccccc6)c(F)c5)CC3)C2)C4)C(=O)N1 (mixture of isomers) [E 174, Rac-2-(2,6-dioxopiperidin-3-yl)-6-(2-(7-(3-fluoro-4-((1S,2S)-6-hydroxy-2-phenyl-1,2,3,4-tetrahydronaphthalen-1-yl)phenyl)-2,7-diazaspiro[3.5]nonan-2-yl)-2-oxoethyl)-6,7-dihydropyrrolo[3,4-f]isoindole-1,3(2H,5H)-dione]",10 to 100
7,"C[C@@H]1Cc2c([nH]c3ccccc23)[C@@H](c2c(F)cc(N3CC(C(=O)N4CCC(CN5Cc6cc7c(cc6C5)C(=O)N(C5CCC(=O)NC5=O)C7=O)CC4)C3)cc2F)N1CC(F)F (stereo partly drawn) [E 216, 6-((1-(1-(4-((1R,3R)-2-(2,2-difluoroethyl)-3-methyl-2,3,4,9-tetrahydro-1H-pyrido[3,4-b]indol-1-yl)-3,5-difluorophenyl)azetidine-3-carbonyl)piperidin-4-yl)methyl)-2-(2,6-dioxopiperidin-3-yl)-6,7-dihydropyrrolo[3,4-f]isoindole-1,3(2H,5H)-dione]",< 10
8,"C[C@@H]1Cc2c([nH]c3ccccc23)[C@@H](c2c(F)cc(N3CCC(N4CC(C(=O)N5Cc6cc7c(cc6C5)C(=O)N(C5CCC(=O)NC5=O)C7=O)C4)CC3)cc2F)N1CC(F)F (stereo partly drawn) [E 119, 6-(1-(1-(4-((1R,3R)-2-(2,2-difluoroethyl)-3-methyl-2,3,4,9-tetrahydro-1H-pyrido[3,4-b]indol-1-yl)-3,5-difluorophenyl)piperidin-4-yl)azetidine-3-carbonyl)-2-(2,6-dioxopiperidin-3-yl)-6,7-dihydropyrrolo[3,4-f]isoindole-1,3(2H,5H)-dione]",> 100
9,"C[C@@H]1Cc2c([nH]c3ccccc23)[C@@H](c2c(F)cc(N3CCC4(CCN(C(=O)CN5Cc6cc7c(cc6C5)C(=O)N(C5CCC(=O)NC5=O)C7=O)CC4)CC3)cc2F)N1CC(C)(F)F (stereo partly drawn) [E 253, 6-(2-(9-(4-((1R,3R)-2-(2,2-difluoropropyl)-3-methyl-2,3,4,9-tetrahydro-1H-pyrido[3,4-b]indol-1-yl)-3,5-difluorophenyl)-3,9-diazaspiro[5.5]undecan-3-yl)-2-oxoethyl)-2-(2,6-dioxopiperidin-3-yl)-6,7-dihydropyrrolo[3,4-f]isoindole-1,3(2H,5H)-dione]",< 10
10,"O=C1CCC(N2C(=O)c3cc4c(cc3C2=O)CN(CC2(F)CN(CC3CCN(c5ccc([C@@H]6c7ccc(O)cc7CC[C@@H]6c6ccccc6)cc5)CC3)C2)C4)C(=O)N1 (stereo partly drawn) [E 212, 2-(2,6-dioxopiperidin-3-yl)-6-((3-fluoro-1-((1-(4-((1R,2S)-6-hydroxy-2-phenyl-1,2,3,4-tetrahydronaphthalen-1-yl)phenyl)piperidin-4-yl)methyl)azetidin-3-yl)methyl)-6,7-dihydropyrrolo[3,4-f]isoindole-1,3(2H,5H)-dione]",> 100
11,"O=C1CCC(N2C(=O)c3cc4c(cc3C2=O)CN(C(=O)CN2CCC3(CC2)CCN(c2ccc(C(=C(CCCl)c5ccccc5)c5ccc(B(O)O)cc5)cc2)CC3)C4)C(=O)N1 (stereo not drawn) [E 198, (4-(4-chloro-1-(4-(9-(2-(6-(2,6-dioxopiperidin-3-yl)-5,7-dioxo-3,5,6,7-tetrahydropyrrolo[3,4-f]isoindol-2(1H)-yl)-2-oxoethyl)-3,9-diazaspiro[5.5]undecan-3-yl)phenyl)-2-phenylbut-1-en-1-yl)phenyl)boronic acid]",10 to 100
12,"O=C1CCC(N2C(=O)c3cc4c(cc3C2=O)CN(C2CCC(C(=O)N3CC(Oc5ccc([C@H]6c7ccc(O)cc7CC[C@H]6c6ccccc6)cc5)C3)CC2)C4)C(=O)N1 (stereo partly drawn) [E 384, 2-(2,6-dioxopiperidin-3-yl)-6-((1R,4s)-4-(3-(4-((1S,2R)-6-hydroxy-2-phenyl-1,2,3,4-tetrahydronaphthalen-1-yl)phenoxy)azetidine-1-carbonyl)cyclohexyl)-6,7-dihydropyrrolo[3,4-f]isoindole-1,3(2H,5H)-dione]",10 to 100

# Same assay, conditions: compounds 16 hours, Table A does not say whether T47D or MCF7, read-out: Potency (DC50)
row,SMILES,DC50 [nM]
1,"C[C@@H]1Cc2c([nH]c3ccccc23)[C@@H](c2c(F)cc(C3CCC4(CC3)CCN(C(=O)CN3Cc5cc6c(cc5C3)C(=O)N(C3CCC(=O)NC3=O)C6=O)CC4)cc2F)N1CC(F)F (stereo partly drawn) [E 480, 6-(2-(9-(4-((1R,3R)-2-(2,2-difluoroethyl)-3-methyl-2,3,4,9-tetrahydro-1H-pyrido[3,4-b]indol-1-yl)-3,5-difluorophenyl)-3-azaspiro[5.5]undecan-3-yl)-2-oxoethyl)-2-(2,6-dioxopiperidin-3-yl)-6,7-dihydropyrrolo[3,4-f]isoindole-1,3(2H,5H)-dione]",10 to 100
2,"C[C@@H]1Cc2c([nH]c3ccccc23)[C@@H](c2ccc(C3CCC4(CC3)CCN(C(=O)CN3Cc5cc6c(cc5C3)C(=O)N(C3CCC(=O)NC3=O)C6=O)CC4)cc2F)N1CC(F)F (stereo partly drawn) [E 479, 6-(2-(9-(4-((1R,3R)-2-(2,2-difluoroethyl)-3-methyl-2,3,4,9-tetrahydro-1H-pyrido[3,4-b]indol-1-yl)-3-fluorophenyl)-3-azaspiro[5.5]undecan-3-yl)-2-oxoethyl)-2-(2,6-dioxopiperidin-3-yl)-6,7-dihydropyrrolo[3,4-f]isoindole-1,3(2H,5H)-dione]",> 100
3,"COc1c2c(cc3c1CN(C1CCC(=O)NC1=O)C3=O)CN(CC(=O)N1CCC3(CC1)CCN(c1cc(F)c([C@@H]4c5[nH]c6ccccc6c5C[C@@H](C)N4CC(F)F)c(F)c1)CC3)C2 (stereo partly drawn) [E 444, 3-(6-(2-(9-(4-((1R,3R)-2-(2,2-difluoroethyl)-3-methyl-2,3,4,9-tetrahydro-1H-pyrido[3,4-b]indol-1-yl)-3,5-difluorophenyl)-3,9-diazaspiro[5.5]undecan-3-yl)-2-oxoethyl)-4-methoxy-1-oxo-3,5,6,7-tetrahydropyrrolo[3,4-f]isoindol-2(1H)-yl)piperidine-2,6-dione]",< 10
